Test: NO generation experiment: compound reacted with H2O2 in the presence of a catalyst, Griess assay
Settings: compound 1 mg/ml, PBS pH 5.5, 1 mM H2O2, 37° C., 4 hours
Experimental: Generation of nitric oxide was investigated by reacting the above-described compounds having a structure of
with hydrogen peroxide (H2O2) in the presence of a catalyst. After suspending particles including 1 mg/ml of the compound below and the catalyst in a medium composed of 5 ml of PBS at pH 5.5 and hydrogen peroxide (H2O2) at 1 mM concentration, the suspension was subjected to incubation at 37° C. for 4 hours, followed by sampling the supernatant to analyze the NO generation through Griess assay.

N=C(N)NCCC[C@H](NC(=O)OCc1ccccc1)C(=O)O [Nα-Benzyloxycarbonyl-L-arginine]
Concentration of generated NO (catalyst Mn-porphyrin 2 mg/ml): 34 µM | Concentration of generated NO (catalyst PCN-223-Fe 1 mg/ml): 216 µM

Reference: patent publication US20240325334A1, “COMPOSITION FOR GENERATING NITROGEN MONOXIDE” (SEOUL NATIONAL UNIVERSITY R&DB FOUNDATION, priority 2021, published 2024)
